Columns and labels:
[1] = system: blood pressure of genetically-hypertensive rats; test: antihypertensive effect in awake genetically-hypertensive rats, oral, once daily on two consecutive days; type: in vivo, rat (Kyoto strain); conditions: for relation between percentage change of the blood pressure (BP) and the applied dose / Th. E. (therapeutic effectiveness) [Serial No. 3 = 1.0]: 24-hour value of the 2nd day; for relation between percentage change of the blood pressure (BP) and the applied dose: dose in μmole/kg; for Th. E. (therapeutic effectiveness) [Serial No. 3 = 1.0]: relative to hydralazine = 1.0
Method: In order to determine the anti-hypertensive effect, the compounds or mixtures are administered once daily by means of an oesophageal sound in the stated doses on two consecutive days to, in each case, 8 rats (Kyoto strain) with genetically-caused hypertension. The blood pressure was measured in each case 6 and 24 hours after administration of the substance.
(§1) The measurement of the systolic blood pressure is effected with the aid of an inflatable cuff which is placed around the tail root and on which cuff there are arranged distally annularly 3 piezo-electric crystals (at a distance of 120°) for registering the pulse waves. The determination of the blood pressure is effected through inflation of the cuff and graphic recording of the pulse amplitude [analogously to H. Friebel and E. Vreden, Arch. exper. Path. u. Pharmakol., 232, 419 (1958)]. The animals were kept in an ambience of, and the experiments were carried out at from 22° to 24° C. and from 50 to 60 percent atmospheric humidity. In order to accustom the animals to the measuring process, a measurement was effected on the animals in each case 2 to 3 times daily for three days. For this purpose, as in the subsequent experiments, the rats were put into tunnel-shaped wire cages; one narrow side of the cages is slidable, the other has an opening for taking the tail through. In order to ensure a better blood flow through the tail artery during the measurement, the tails are irradiated for from 5 to 10 minutes with a red light lamp (150 watts) (distance: animal-lamp=50 cm). The air temperature immediately ambient to the tail is from 30° to 33° C. The body of the animals is covered and thus protected from direct irradiation.
(§2) Table I reproduces for the representatives of the compounds according to the invention the percentage lowering of the blood pressure after oral administration in the rat and the lethal effect after oral administration in the mouse.
% Change of blood pressure (BP) in genetically-hypertensive rats after
single daily application per os on two consecutive days (N = 8/dose)

[2] = acute oral toxicity, LD50, mouse; set-up: species or system mouse (NMRI, female); conditions: in vivo, per os, single administration, mice, N = 5/dose, 14 days observation
Method: The toxicity investigations were carried out on female NMRI mice (body weight from 22 to 26 g). The animals (5 animals per dose) receive food and water ad libitum. Different doses of the substances are administered orally. The duration of observation is 14 days. The LD50, i.e. the dose at which 50 percent of the animals die, is determined graphically from the dose effect curve.
as §2
and toxicity (per os; LD50) in mice (N = 5/dose)

[3] = system: blood pressure of genetically-hypertensive rats; test: lowering of blood pressure of genetically-hypertensive rats, oral, once daily on 10 consecutive days; type: in vivo, rat (Kyoto strain); conditions: 6 h after application
Method: as §1
In Table III there is represented the lowering of the blood pressure of genetically-hypertensive rats in the case of oral application of 3-hydrazino-5,7-propano-5,6,7,8-tetrahydro-6-pyrido[4,3-c]pyridazine carboxylic acid ethyl ester fumarate. In each case 8 animals received the stated dose once daily on 10 consecutive days.
Lowering of the blood pressure of genetically-hypertensive rats
(in mm Hg) in the case of administration of different doses of No. 4
(in mg/kg rat), measured on 10 consecutive days (6 hours after
application in each case).
Doses: a = 1.25 mg/kg; b = 2.5 mg/kg; c = 5.0 mg/kg; d = 10.0 mg/kg.

[4] = 5 mg/kg per os on 2nd day (half of original dose)
[5] = 5 mg/kg per os on 2nd day (half of original dose), 24 h

CCOC(=O)N1C2CCCC1c1cc(NN)nnc1C2 (stereo not shown) [3-hydrazino-5,7-propano-5,6,7,8-tetrahydro-6-pyrido[4,3-c]pyridazine carboxylic acid ethyl ester]
anti-hypertensive effectiveness and duration of action, in words ([1]; awake genetically-hypertensive rats, compared with hydralazine and known compounds): considerably higher anti-hypertensive effectiveness and longer duration of action than hydralazine

CCOC(=O)N1CCc2nnc(NN)cc2C1 [Serial No. 1, 3-hydrazino-5,6,7,8-tetrahydro-6-pyrido[4,3-c]pyridazine carboxylic acid ethyl ester, reference compound]
LD50 at 336 h [2]: 340 mg/kg | BP (% change), 2nd day, 6 h [1, 4]: -17.5% | BP (% change), 1st day, 6 h ([1]; 10 mg/kg per os): -24.5% | BP (% change), 1st day, 24 h ([1]; 10 mg/kg per os, 24 h): -6.0% | relation between percentage change of the blood pressure (BP) and the applied dose [1]: 0.404 | BP (% change) 2nd day, 24 h ([1]; Table II, dose 21.05 μmole/kg): -8.5% | Th. E. (therapeutic effectiveness) [Serial No. 3 = 1.0] [1]: 8.3

CCOC(=O)N1CCc2nnc(NN)c(C)c2C1.Cl [Serial No. 2, 3-hydrazino-4-methyl-5,6,7,8-tetrahydro-6-pyrido[4,3-c]pyridazine carboxylic acid ethyl ester hydrochloride, reference compound]
BP (% change), 1st day, 6 h ([1]; 20 mg/kg per os): -4.7% | BP (% change), 1st day, 24 h ([1]; 20 mg/kg per os, 24 h): -1.0% | BP (% change), 2nd day, 6 h ([1]; 20 mg/kg per os, 2nd day): -4.7% | BP (% change) 2nd day, 24 h ([1]; 20 mg/kg per os, 2nd day, 24 h): -3.7% | relation between percentage change of the blood pressure (BP) and the applied dose [1]: 0.046 | BP (% change) 2nd day, 24 h ([1]; Table II, dose 79.6 μmole/kg): -3.7% | Th. E. (therapeutic effectiveness) [Serial No. 3 = 1.0] [1]: 0.9

NNc1nncc2ccccc12 [Serial No. 3, 1-hydrazinophthalazine, reference compound]
BP (% change), 1st day, 6 h ([1]; 20 mg/kg per os): -10.7% | BP (% change), 1st day, 24 h ([1]; 20 mg/kg per os, 24 h): -1.5% | BP (% change), 2nd day, 6 h ([1]; 20 mg/kg per os, 2nd day): -11.8% | BP (% change) 2nd day, 24 h ([1]; 20 mg/kg per os, 2nd day, 24 h): -6.1% | relation between percentage change of the blood pressure (BP) and the applied dose [1]: 0.0488 | BP (% change) 2nd day, 24 h ([1]; Table II, dose 125.0 μmole/kg): -6.1% | Th. E. (therapeutic effectiveness) [Serial No. 3 = 1.0] [1]: 1.0

CCOC(=O)N1C2CCCC1c1cc(NN)nnc1C2.O=C(O)/C=C/C(=O)O (stereo not shown) [Serial No. 4, 3-hydrazino-5,7-propano-5,6,7,8-tetrahydro-6-pyrido[4,3-c]pyridazine carboxylic acid ethyl ester fumarate]
LD50 at 336 h [2]: 400 mg/kg | BP (% change), 1st day, 6 h ([1]; 2.5 mg/kg per os): -9.0% | BP (% change), 1st day, 24 h ([1]; 2.5 mg/kg per os, 24 h): -11.8% | BP (% change), 2nd day, 6 h ([1]; 2.5 mg/kg per os, 2nd day): -15.9% | BP (% change) 2nd day, 24 h ([1]; 2.5 mg/kg per os, 2nd day, 24 h): -17.1% | relation between percentage change of the blood pressure (BP) and the applied dose [1]: 1.90 | BP (% change) 2nd day, 24 h ([1]; Table II, dose 9.0 μmole/kg): -17.1% | Th. E. (therapeutic effectiveness) [Serial No. 3 = 1.0] [1]: 38.9 | Lowering of the blood pressure ([3]; day 1, a = 1.25 mg/kg oral): 25.0 mm Hg | Lowering of the blood pressure ([3]; day 1, b = 2.5 mg/kg oral): 35.0 mm Hg | Lowering of the blood pressure ([3]; day 1, c = 5.0 mg/kg oral): 48.0 mm Hg | Lowering of the blood pressure ([3]; day 1, d = 10.0 mg/kg oral): 58.0 mm Hg | Lowering of the blood pressure ([3]; day 2, a = 1.25 mg/kg oral): 14.0 mm Hg | Lowering of the blood pressure ([3]; day 2, b = 2.5 mg/kg oral): 59.0 mm Hg | Lowering of the blood pressure ([3]; day 2, c = 5.0 mg/kg oral): 67.0 mm Hg | Lowering of the blood pressure ([3]; day 2, d = 10.0 mg/kg oral): 77.5 mm Hg | Lowering of the blood pressure ([3]; day 3, a = 1.25 mg/kg oral): 20.0 mm Hg | Lowering of the blood pressure ([3]; day 3, b = 2.5 mg/kg oral): 44.0 mm Hg | Lowering of the blood pressure ([3]; day 3, c = 5.0 mg/kg oral): 53.0 mm Hg | Lowering of the blood pressure ([3]; day 3, d = 10.0 mg/kg oral): 66.0 mm Hg | Lowering of the blood pressure ([3]; day 4, a = 1.25 mg/kg oral): 21.0 mm Hg | Lowering of the blood pressure ([3]; day 4, b = 2.5 mg/kg oral): 67.0 mm Hg | Lowering of the blood pressure ([3]; day 4, c = 5.0 mg/kg oral): 72.0 mm Hg | Lowering of the blood pressure ([3]; day 4, d = 10.0 mg/kg oral): 74.0 mm Hg | Lowering of the blood pressure ([3]; day 7, a = 1.25 mg/kg oral): 27.0 mm Hg | Lowering of the blood pressure ([3]; day 7, b = 2.5 mg/kg oral): 53.0 mm Hg | Lowering of the blood pressure ([3]; day 7, c = 5.0 mg/kg oral): 59.0 mm Hg | Lowering of the blood pressure ([3]; day 7, d = 10.0 mg/kg oral): 69.0 mm Hg | Lowering of the blood pressure ([3]; day 8, a = 1.25 mg/kg oral): 21.0 mm Hg | Lowering of the blood pressure ([3]; day 8, b = 2.5 mg/kg oral): 66.0 mm Hg | Lowering of the blood pressure ([3]; day 8, c = 5.0 mg/kg oral): 67.0 mm Hg | Lowering of the blood pressure ([3]; day 8, d = 10.0 mg/kg oral): 66.0 mm Hg | Lowering of the blood pressure ([3]; day 9, b = 2.5 mg/kg oral): 64.0 mm Hg | Lowering of the blood pressure ([3]; day 9, c = 5.0 mg/kg oral): 63.0 mm Hg | Lowering of the blood pressure ([3]; day 9, d = 10.0 mg/kg oral): 61.0 mm Hg | Lowering of the blood pressure ([3]; day 10, b = 2.5 mg/kg oral): 71.0 mm Hg | Lowering of the blood pressure ([3]; day 10, c = 5.0 mg/kg oral): 66.0 mm Hg | Lowering of the blood pressure ([3]; day 10, d = 10.0 mg/kg oral): 63.0 mm Hg

CC(C)=NNc1cc2c(nn1)CC1CCCC2N1C(=O)c1ccccc1 (stereo not shown) [Serial No. 5, 6-benzoyl-3-isopropylidenehydrazino-5,7-propano-5,6,7,8-tetrahydropyrido[4,3-c]pyridazine]
LD50 at 336 h [2]: 510 mg/kg | BP (% change), 2nd day, 6 h [1, 4]: -15.2% | BP (% change) 2nd day, 24 h [1, 5]: -12.8% | BP (% change), 1st day, 6 h ([1]; 10 mg/kg per os): -20.1% | BP (% change), 1st day, 24 h ([1]; 10 mg/kg per os, 24 h): -4.4% | relation between percentage change of the blood pressure (BP) and the applied dose [1]: 0.87 | BP (% change) 2nd day, 24 h ([1]; Table II, dose 14.3 μmole/kg): -12.8% | Th. E. (therapeutic effectiveness) [Serial No. 3 = 1.0] [1]: 17.8

CCOC(=O)N1C2CCC1c1cc(NN=C(C)C)nnc1C2 (stereo not shown) [Serial No. 6, 3-isopropylidenehydrazino-5,7-ethano-5,6,7,8-tetrahydro-6-pyrido[4,3-c]-pyridazine carboxylic acid ethyl ester]
LD50 at 336 h [2]: 300 mg/kg | BP (% change), 2nd day, 6 h [1, 4]: -21.5% | BP (% change) 2nd day, 24 h [1, 5]: -23.1% | BP (% change), 1st day, 6 h ([1]; 10 mg/kg per os): -23.1% | BP (% change), 1st day, 24 h ([1]; 10 mg/kg per os, 24 h): -20.5% | relation between percentage change of the blood pressure (BP) and the applied dose [1]: 1.40 | BP (% change) 2nd day, 24 h ([1]; Table II, dose 16.5 μmole/kg): -23.1% | Th. E. (therapeutic effectiveness) [Serial No. 3 = 1.0] [1]: 28.7

From patent US4277472A, “3,6-Disubstituted-5,7-(lower alkano)-5,6,7,8-tetrahydropyrido(4,3-C)pyridazines; their intermediates, preparation, antihypertensive use and compositions” (Byk Gulden Lomberg Chemische Fabrik GmbH, priority 1978, dated 1981)
